In patent US9956229B2, “Acyclic cucurbit[n]uril type molecular containers to treat intoxication and decrease relapse rate in substance abuse disorders” (UNIVERSITY OF MARYLAND, COLLEGE PARK, priority 2014, dated 2018):

Experiments:
ketamine anesthesia = test: EEG power and mean arterial pressure during continuous ketamine infusion; format: in vivo, rat; details: escalating phenylephrine infusion 4 to 10 μg/kg/min; n=3
[1] = Direct 1H NMR titration, 1:1 binding model; details: 20 mM NaH2PO4 buffered (pH 7.4) D2O
Protocol: A direct titration was performed between the host and guest. The concentration of the host was kept constant while varying the concentration of the guest and the change in chemical shift of a selected host signal was measured. The change in chemical shift as a function of guest concentration was fitted to a 1:1 binding model to determine the Ka. In some cases, the concentration of guest was fixed and host concentration was varied, depending on the availability of a suitable ^1H NMR peak whose chemical shift change could be easily monitored.
1:1 Binding Model for NMR

CNC[C@H](O)c1cccc(O)c1 [phenylephrine]
effect on MAP and EEG power during steady state shallow ketamine anesthesia (ketamine anesthesia): significant MAP increases without effects on EEG power

O=S(=O)(O)c1cc2c(O)c(c1)Cc1cc(S(=O)(=O)O)cc(c1O)Cc1cc(S(=O)(=O)O)cc(c1O)Cc1cc(S(=O)(=O)O)cc(c1O)C2 [4-sulfo calix[4]arene]
Binding Constant with Host (Ka), morphine [1]: (4.9±0.3)×10^4 M^−1 | Binding Constant with Host (Ka), cocaine ([1]; 1:1 model): (4.3±1.5)×10^4 M^−1 | Binding Constant with Host (Ka), ketamine ([1]; 1:1 model): ~10^5 M^−1 | Binding Constant with Host (Ka), methamphetamine ([1]; 1:1 model): (3.8±0.6)×10^4 M^−1 | Binding Constant with Host (Ka), phencyclidine ([1]; 1:1 model): (5.0±0.6)×10^4 M^−1 | Binding Constant with Host (Ka), ketamine ([1]; 1:1 model, listed as 4-suldo calix[4]arene): ~10^5 M^−1

O=C1N2CN3C(=O)N4CN5C(=O)N6CN7C(=O)N8CN9C(=O)N%10CN%11C(=O)N%12CN%13C(=O)N%14CN1C1C2N2CN%15C(=O)N(CN%16C(=O)N(CN%17C(=O)N(CN%18C(=O)N(CN%19C(=O)N(CN%20C(=O)N(CN1C2=O)C%14C%13%20)C%12C%11%19)C%10C9%18)C8C7%17)C6C5%16)C4C3%15 (centres unmarked) [CB[7], cucurbit[7]uril]
Binding Constant with Host (Ka), morphine [1]: <10^3 M^−1
